These results are taken from publication PMC6692352, “DF2726A, a new IL-8 signalling inhibitor, is able to counteract chemotherapy-induced neuropathic pain” (Scientific Reports, 2019).

Assay [1] deals with oxaliplatin-induced cold allodynia. Nature of the assay: Oxaliplatin-induced cold allodynia (acetone test). The assay is classed as in vivo, male Wistar rats. Conditions: 30 mg/kg os for 24 days; from day 5 (P < 0.01) to final test day (P < 0.001). On the procedure: Behavioural tests were performed on male Wistar rats (200–250 g, Harlan, Italy) housed in the animal care facility at the Department of Pharmacy of the University of Naples Federico II, Italy, as previously described. Animals were housed, in a group of five, in a room with controlled temperature (22 ± 1 °C), humidity (60 ± 10%) and light (12 h per day); food and water were available ad libitum. All animals were weighted on the day of each treatment. All behavioural tests were performed between 09:00 and 17:00 h, and the animals were used only once. Animal care and manipulations were conducted in conformity with International and National law and policies (EU Directive 2010/63/EU for animal experiments, ARRIVE guidelines, and the Basel declaration including the 3R concept). The procedures reported here were approved by the Institutional Committee on the Ethics of Animal Experiments (CVS) of the University of Naples Federico II and by Ministero della Salute under protocol no. 2014-00884607. […]
Cold sensitivity was measured as the number of foot withdrawal responses after application of acetone to the dorsal surface of the paw[8],[22]. […] The mean of paw withdrawal (expressed in numbers) was determined from an average of six separate measurements. Cold responses were measured before (day -1) and then 3, 5, 7, 10, 14 and 21 days after first administration of oxaliplatin or vehicle. […]

The next assay concerns TRPA1. The assay can be described thus: Western blot of DRG of oxaliplatin rats, TRPA1. The assay is classed as in vivo, male Wistar rats. Conditions: 30 mg/kg os. On the procedure:
Animals were sacrificed and dorsal root ganglia (DRG) (L4-L6) were removed and stored at […]. They were homogenized on ice-cold lysis buffer [20 mM Tris–HCl (pH 7.5), 10 mM NaF, 150 mM NaCl, 1% Nonidet P-40, 1 mM phenylmethylsulfonyl fluoride, 1 mM Na3VO4, leupeptin and trypsin inhibitor 10 μg/mL; 20 µl/sample, as previously described.
After 1 h, tissue lysates were obtained by centrifugation at 20,000 g for 15 min at 4 °C. Protein concentrations were estimated by the Bio-Rad protein assay using bovine serum albumin as standard.
DRG lysate proteins (30 μg) were dissolved in Laemmli sample buffer, boiled for 5 min, and separated on SDS-polyacrylamide gel elctrophoresis and transferred onto nitrocellulose membrane (240 mA for 40 min at room temperature). […] The protein bands were scanned and densitometrically analyzed with a model GS-700 imaging densitometer (Bio-Rad Laboratories, Milan, Italy). […]

Another assay deals with p-ERK1/2. Nature of the assay: p-ERK1/2 western blotting in F11-derived neurons. Conditions: DF2726A 1 µM + oxaliplatin 20 µM, 24 h. It is filed as cell-based. On the procedure:
Following neuronal differentiation, neurons were treated for 24 h with DF2726A (1 μM final concentration), oxaliplatin (Sigma-Aldrich; 20 µM final concentration), or the combination of the two molecules.
Control and treated cells were collected and lysed in ice-cold RIPA buffer (PBS pH 7.4 containing 0.5% sodium deoxycolate, 1% Igepal, 0.1% SDS, 5 mM EDTA, 1% protease and phosphatase inhibitor cocktails; Sigma-Aldrich) as described in[22],[33]. Protein lysates (30 μg) were separated on 8–12% SDS-polyacrilamide gel and electroblotted onto polyvinyldifluoride membrane (PVDF; Sigma-Aldrich). Nonspecific binding sites were blocked by 5% non-fat dry milk (Bio-Rad Laboratories, Hercules, CA, USA) in Tris buffered saline (TBS: 20 mM Tris- HCl, pH 7.4, containing 150 mM NaCl) for 30 min at RT. […] The relative densities of immunoreactive bands were determined and normalized HRP-conjugated β-actin, using ImageJ software. […]

Regarding `CC(C)(C(=O)O)c1ccc(Nc2nc(C(F)(F)F)cs2)cc1` [DF2726A], the “Effect on oxaliplatin-induced cold allodynia (acetone paw withdrawal responses)” value in assay [1] is given as “marked attenuation of cold allodynia”. Moreover, in the assay with TRPA1, the “TRPA1 expression in DRG of oxaliplatin rats” value was “significant reduction in the expression”. For the same compound, in the assay on p-ERK1/2, the “p-ERK1/2 protein levels, oxaliplatin-treated neurons” value is on record as “comparable to those of control cells”.
